Assay type in all cases: cell-based
In experiment [1] the test system is RR1 cells (rituximab-resistant burkitt lymphoma cell line). As to the kind of experiment: Cell death inducing effect on RR1 cells, trypan blue staining. Particulars: RR1 (Burkkit lymphoma; rituximab resistance), cell viability. On the procedure: Raji cells, a burkitt lymphoma cell line, were modified to be rituximab-resistant and named RR1 cells.
RR1 cells (rituximab-resistant burkitt lymphoma cell line) were cultured under 5% CO2 at 37° C. The culture medium used RPMI-1640 medium with 100 μg/mL penicillin, 100 U/mL streptomycin and fetal bovine serum. RR-1 cells were seeded into 96-well plates and incubated with each concentration of the compounds was added, and cell viability was determined by the trypan blue staining.
For controls, only 0.5% DMSO (diluted in PBS) used to dissolve the compounds was added. For each concentration, each bar line is indicated by an arrow with the sign “n, a, 1, 2, 3, 4, 5, 6, 7, 8, 9, 10, 11, 12” from left to right. The “1, 3, 5, 7, 9, 11” are omitted from the graph, but the sign “1” shall be indicated by an arrow between the signs “a” and “2”, the sign “3” between the signs “2” and “4”, and other odd numbers shall likewise be indicated by arrows between even numbers before and after.
The sign “n” is the norathyriol (formula (n)) administration group, the sign “a” is the mangiferin 8a (formula (a)) administration group, the sign “1” is the yk-7 (formula (1)) administration group, the sign “2” is the yk-8-1 (formula (2)) administration group, the sign “3” is the yk-8-3 (formula (3)) administration group, the sign “4” is the M7 (formula (4)) administration group, the sign “5” is the M9 (formula (5)) administration group, the sign “6” is the M11 (formula (6)) administration group, the sign “7” is the M12 (formula (7)) administration group, the sign “8” is the M14 (formula (8)) administration group, the sign “9” is the M15 (formula (9)) administration group, the sign “10” is the M16 (formula (10)) administration group, the sign “11” is the M18 (formula (11)) administration group, the sign “12” is the M19 (formula (12)) administration group, respectively. The IC50 values for each compound is also listed in the upper right corner of the figure.

The subject of another experiment is CD138. The experiment is described as follows: CD138 expression in L363 cells, flow cytometry. Particulars: 10 days, concentration lower than the IC50 (0.005-50 μM), compared to the positive control. On the procedure: As a control, compounds untreated L363 cells were seeded in 75 cm^2 flasks and incubated for 10 days at 37° C. and 5% CO2. L363 cells were seeded into 75 cm^2 flasks and pre-cultured for 4 h. After incubation, L363 cells were treated with 0.1 μM M7, 0.05 μM M9, 0.1 μM yk-7, 0.1 μM yk-8-3, 50 μM yk-8-1, 0.1 μM M11, 0.01 μM M12, 0.005 μM M14, 0.005 μM M15, 0.005 μM M16, 1 μM M18, and 1 μM M19 at final concentrations, and incubated for 10 days at 37° C. and 5% CO2. This added amount is a concentration lower than the IC50 of the above compounds for L363 cells. After 10 days of incubation, cells were stained with anti-CD138 antibody, a marker of multiple myeloma grade, and CD138 expression was measured using BD LSRFortessa.
Results are shown in FIG. 25, FIG. 26, FIG. 27 and FIG. 28. The horizontal axis represents the expression level of CD138 and the vertical axis represents the number of cells.

The next experiment deals with T1, phospho-NIK (Homo sapiens, UniProt Q99558).
T1 construct: Proteins were extracted from these cell suspensions with cell lysate and used as samples; endogenous in cells; host or cells: KMS-28BM (myeloma)
As to the kind of experiment: Immunoblotting of phospho-NIK in KMS-28BM cells. The note with it: 72 h, vs control, 1 μM mangiferin 8a/M8, 1 μM norathyriol, 0.5 μM M7, 0.2 μM M9, 5 μM yk-7, 0.5 μM yk-8-3, 100 μM yk-8-1, 0.5 μM M19, M18, M11, 0.005 μM M16, M15, M14, 0.05 μM M12. The procedure: (§1) Immunoblotting was performed on KMS-28BM cells to investigate the inhibitory effect of each compound administration on NIK inhibition and the activation of IKK, NF-κB p52, and NF-κB p65, which are downstream signals of NIK. As a result, inhibition of NIK activation, inhibition of IKK activity, and inhibition of nuclear translocation of NF-κB p52 and NF-κB p65 were observed (FIG. 15 and FIG. 16).
(§2) As a control, compounds untreated KMS-28BM cells were seeded in 150 cm^2 flasks and incubated for 72 h at 37° C. and 5% CO2. KMS-28BM cells were seeded into 150 cm^2 flasks and pre-cultured for 24 h. After incubation, KMS-28BM cells were treated with […], 1 μM norathyriol, 0.5 μM M7 (formula (4)), 1 μM M8 (mangiferin 8a: listed in duplicate), 0.2 μM M9 (formula (5)), 5 μM yk-7 (formula (1)), 0.5 μM yk-8-3 (formula (3)) and 100 μM yk-8-1 (formula (2)) at final concentrations, and incubated for 72 h at 37° C. and 5% CO2. In addition, KMS-28BM cells were also treated with 0.5 μM M19 (formula (12)), 0.5 μM M18 (formula (11)), 0.005 μM M16 (formula (10)), […] (formula (9)), 0.005 μM M14 (formula (8)), 0.05 μM M12 (formula (7)) and […] (formula (6)) at the final concentrations, and incubated for 72 h at 37° C. and 5% CO2. Proteins were extracted from these cell suspensions with cell lysate and used as samples.
(§3) The nucleus and cytoplasmic substrate were separated from the cells using the ProteoExtract (registered trademark) Subcellular Proteome Extraction Kit from Merck Ltd. to extract the cytoplasmic and nuclear fractions.
(§4) After SDS-PAGE, each sample was transferred to a PVDF membrane and examined using anti-phospho-NIK, anti-NIK, anti-phospho-IKK, anti-IKK, anti-P-actin, anti-NF-κB p52 and anti-NF-κB p65 antibody, and anti-Lamin antibody.
(§5) The antibody species is indicated in the vertical direction. Specifically, for anti-phospho-NIK antibody, “Phospho-NIK” was used, for anti-NIK antibody, “NIK” was used, for anti-phospho-IKK antibody, “Phospho-IKK” was used, for anti-IKK antibody, “IKK” was used, for anti-p-actin antibody, “p-actin” was used, for anti-NF-κB p52 antibody, “NF-κB p52 nuclear” was used, for anti-NF-κB p65 antibody, “NF-κB p65 nuclear” was used, and for anti-Lamin antibody, “Lamin” was used.

For a further experiment, the system named is phospho-IKK. As to the kind of experiment: Immunoblotting of phospho-IKK in KMS-28BM cells. The note with it: 72 h, vs control, same concentrations as for phospho-NIK (0.005-100 μM). On the procedure: as §1, §2, §3, §4, §5
In general terms: A western blot detects proteins with antibodies after separation by electrophoresis.

T1 sequence (Q99558 whole entry): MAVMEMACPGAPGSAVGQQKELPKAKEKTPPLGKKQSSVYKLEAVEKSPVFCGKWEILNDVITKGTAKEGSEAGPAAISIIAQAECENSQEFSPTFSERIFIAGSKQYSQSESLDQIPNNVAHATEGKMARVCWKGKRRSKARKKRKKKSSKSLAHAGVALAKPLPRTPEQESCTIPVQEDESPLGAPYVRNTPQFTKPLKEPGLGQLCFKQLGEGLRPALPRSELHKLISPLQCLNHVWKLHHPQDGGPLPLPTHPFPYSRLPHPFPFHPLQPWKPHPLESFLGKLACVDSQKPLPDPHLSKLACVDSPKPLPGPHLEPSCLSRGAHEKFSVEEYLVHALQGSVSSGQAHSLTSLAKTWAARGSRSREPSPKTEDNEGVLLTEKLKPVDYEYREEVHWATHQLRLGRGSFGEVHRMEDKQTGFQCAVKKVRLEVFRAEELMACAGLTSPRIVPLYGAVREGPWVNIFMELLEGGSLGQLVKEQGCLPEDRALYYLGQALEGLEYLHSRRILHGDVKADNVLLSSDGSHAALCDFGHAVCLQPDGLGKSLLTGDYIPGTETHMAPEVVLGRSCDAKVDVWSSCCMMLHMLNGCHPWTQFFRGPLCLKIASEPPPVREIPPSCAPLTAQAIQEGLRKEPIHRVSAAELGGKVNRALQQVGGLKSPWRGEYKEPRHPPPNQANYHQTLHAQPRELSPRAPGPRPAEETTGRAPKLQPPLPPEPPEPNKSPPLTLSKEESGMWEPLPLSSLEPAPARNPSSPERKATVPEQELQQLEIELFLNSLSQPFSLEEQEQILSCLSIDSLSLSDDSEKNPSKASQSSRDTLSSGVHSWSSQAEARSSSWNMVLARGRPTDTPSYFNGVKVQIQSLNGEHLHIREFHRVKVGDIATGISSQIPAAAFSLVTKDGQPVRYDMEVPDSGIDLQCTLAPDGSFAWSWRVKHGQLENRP

Usually IC50 stands for the concentration needed to halve the response being measured. `CCCCC(=O)OC[C@H]1O[C@@H](c2c(OC(=O)CCCC)cc3oc4cc(OC(=O)CCCC)c(OC(=O)CCCC)cc4c(=O)c3c2OC(=O)CCCC)[C@H](OC(=O)CCCC)[C@@H](OC(=O)CCCC)[C@@H]1OC(=O)CCCC` [yk-8-1, 1,3,2′,3′,4′,6,6′,7-octa-O-valerylmangiferin] yielded an IC50 in experiment [1] of 21.4 µM. In the experiment with CD138, the CD138 expression levels entry is given as “markedly reduced”. The “phospho-NIK band density (anti-phospho-NIK antibody)” value on phospho-NIK is “decrease in band density”. In addition, in the experiment with phospho-IKK, the “phospho-IKK band density (anti-phospho-IKK antibody)” value is listed as “decrease in band density”.
Regarding `CCCCC(=O)OC[C@H]1O[C@@H](c2c(O)cc3oc4cc(O)c(O)cc4c(=O)c3c2OC(=O)CCCC)[C@H](OC(=O)CCCC)[C@@H](OC(=O)CCCC)[C@@H]1OC(=O)CCCC` [yk-8-3, 1,2′,3′,4′,6-penta-O-valerylmangiferin], in experiment [1], the IC50 amounted to 0.072 µM. Also, the CD138 expression levels result with CD138 is given as “markedly reduced”. The “phospho-NIK band density (anti-phospho-NIK antibody)” value on phospho-NIK is listed as “decrease in band density”. The “phospho-IKK band density (anti-phospho-IKK antibody)” value with phospho-IKK is reported as “decrease in band density”.

Values taken from US20260200903A1, “PHARMACEUTICAL COMPOSITION FOR AMELIORATING MALIGNANT DISEASES” (KINKI UNIVERSITY, priority 2020, published 2026).
